Laboratory results as given in ChEMBL document CHEMBL4038272, “Synthesis and biological evaluation of novel podophyllotoxin-NSAIDs conjugates as multifunctional anti-MDR agents against resistant human hepatocellular carcinoma Bel-7402/5-FU cells” (Eur J Med Chem, 2017).
Activity calls are given as the source filed them. The calls are words filed in the database; no cut-off is given here.

What was measured:
Bel7402/5-FU [1] = assay: Induction of apoptosis in human Bel7402/5-FU cells assessed as early apoptotic cells at 10 uM after 48 hrs by Annexin V-APC/7-AAD staining based flow cytometry (reference value: 5.24%); assay type: functional
Bel7402/5-FU [2] = assay: Effect on MRP1 expression in human Bel7402/5-FU cells assessed as ratio of MRP1 to beta-actin level at 10 uM after 48 hrs by Western blot analysis (reference value: 0.58); assay type: functional
Bel7402/5-FU [3] = assay: Induction of apoptosis in human Bel7402/5-FU cells assessed as condensed nuclei at 10 uM after 24 hrs by Hoechst 33342 staining based fluorescent microscopic method; assay type: functional, cell-based
Bel7402/5-FU [4] = assay: Antiproliferative activity against human Bel7402/5-FU cells after 72 hrs by CCK-8 assay; assay type: functional, cell-based
[5] = target: RAC-alpha serine/threonine-protein kinase (Homo sapiens) (UniProt P31749); assay: Effect on AKT phosphorylation in human Bel7402/5-FU cells assessed as ratio of phosphorylated AKT to beta-actin level at 10 uM after 48 hrs by Western blot analysis (reference value: 0.39); assay type: cell-based
Bel7402/5-FU [6] = assay: Effect on COX1 expression in human Bel7402/5-FU cells assessed as ratio of COX1 to beta-actin level at 10 uM after 48 hrs by Western blot analysis (reference value: 0.48); assay type: functional
Bel7402/5-FU [7] = assay: Effect on cyclinB1 expression in human Bel7402/5-FU cells assessed as ratio of cyclinB1 to beta-actin level at 10 uM after 48 hrs by Western blot analysis (reference value: 0.53); assay type: functional
Bel7402/5-FU [8] = assay: Effect on VEGFR2 expression in human Bel7402/5-FU cells assessed as ratio of VEGFR2 to beta-actin level at 10 uM after 48 hrs by Western blot analysis (reference value: 0.25); assay type: functional
Bel7402/5-FU [9] = assay: Effect on COX2 expression in human Bel7402/5-FU cells assessed as ratio of COX2 to beta-actin level at 10 uM after 48 hrs by Western blot analysis (reference value: 0.36); assay type: functional
Bel7402/5-FU [10] = assay: Cell cycle arrest in human Bel7402/5-FU cells assessed as accumulation at S phase at 10 uM after 48 hrs by propidium iodide staining based flow cytometry (reference value: 12.62%); assay type: functional
Bel7402/5-FU [11] = assay: Effect on E-cadherin expression in human Bel7402/5-FU cells assessed as ratio of E-cadherin to beta-actin level at 10 uM after 48 hrs by Western blot analysis (reference value: 0.2); assay type: functional
Bel7402/5-FU [12] = assay: Induction of apoptosis in human Bel7402/5-FU cells assessed as reduction in cell number at 10 uM after 24 hrs by Hoechst 33342 staining based fluorescent microscopic method; assay type: functional
Bel7402/5-FU [13] = assay: Induction of apoptosis in human Bel7402/5-FU cells assessed as morphological changes at 10 uM after 24 hrs by Hoechst 33342 staining based fluorescent microscopic method; assay type: functional, cell-based
Bel7402/5-FU [14] = assay: Reduction in microtubule density in human Bel7402/5-FU cells at 10 uM after 24 to 48 hrs by DAPI staining based immunofluorescence microscopic method; assay type: functional, cell-based
Bel7402/5-FU [15] = assay: Antimigratory activity in human Bel7402/5-FU cells at 10 uM after 24 hrs by wound healing assay; assay type: functional, cell-based
Bel7402/5-FU [16] = assay: Induction of apoptosis in human Bel7402/5-FU cells assessed as live cells at 10 uM after 48 hrs by Annexin V-APC/7-AAD staining based flow cytometry (reference value: 91.08%); assay type: functional
Bel7402/5-FU [17] = assay: Induction of apoptosis in human Bel7402/5-FU cells assessed as ratio of cleaved caspase-9 to beta-actin level at 10 uM after 48 hrs by Western blot analysis (reference value: 0.17); assay type: functional
Bel7402/5-FU [18] = assay: Induction of apoptosis in human Bel7402/5-FU cells assessed as ratio of cleaved caspase-3 to beta-actin level at 10 uM after 48 hrs by Western blot analysis (reference value: 0.19); assay type: functional
Bel7402/5-FU [19] = assay: Effect on cyclinA expression in human Bel7402/5-FU cells assessed as ratio of cyclinA to beta-actin level at 10 uM after 48 hrs by Western blot analysis (reference value: 0.39); assay type: functional
[20] = target: Mitogen-activated protein kinase; ERK1/ERK2 (Homo sapiens) (UniProt P27361+P28482); assay: Effect on ERK1/2 phosphorylation in human Bel7402/5-FU cells assessed as ratio of phosphorylated ERK1/2 to beta-actin level at 10 uM after 48 hrs by Western blot analysis (reference value: 0.59); assay type: cell-based
L02 = assay: Antiproliferative activity against human LO2 cells after 72 hrs by CCK-8 assay; assay type: cell-based; conditions: L02, 72 h
Bel7402/5-FU [21] = assay: Induction of apoptosis in human Bel7402/5-FU cells assessed as ratio of cleaved PARP to beta-actin level at 10 uM after 48 hrs by Western blot analysis (reference value: 0.2); assay type: functional
Bel-7402 = assay: Antiproliferative activity against human Bel7402 cells after 72 hrs by CCK-8 assay; assay type: functional, cell-based; conditions: Bel-7402, 72 h
Bel7402/5-FU [22] = assay: Induction of apoptosis in human Bel7402/5-FU cells assessed as ratio of cleaved caspase-8 to beta-actin level at 10 uM after 48 hrs by Western blot analysis (reference value: 0.17); assay type: functional
Bel7402/5-FU [23] = assay: Effect on P-gp expression in human Bel7402/5-FU cells assessed as ratio of P-gp to beta-actin level at 10 uM after 48 hrs by Western blot analysis (reference value: 0.59); assay type: functional
Bel7402/5-FU [24] = assay: Effect on MMP2 expression in human Bel7402/5-FU cells assessed as ratio of MMP2 to beta-actin level at 10 uM after 48 hrs by Western blot analysis (reference value: 0.3); assay type: functional
Bel7402/5-FU [25] = assay: Effect on iNOS expression in human Bel7402/5-FU cells assessed as ratio of iNOS to beta-actin level at 10 uM after 48 hrs by Western blot analysis (reference value: 0.13); assay type: functional
[26] = target: Signal transducer and activator of transcription 3 (Homo sapiens) (UniProt P40763); assay: Effect on STAT3 phosphorylation in human Bel7402/5-FU cells assessed as ratio of phosphorylated STAT3 to beta-actin level at 10 uM after 48 hrs by Western blot analysis (reference value: 0.3); assay type: cell-based
Bel7402/5-FU [27] = assay: Effect on CDK1 expression in human Bel7402/5-FU cells assessed as ratio of CDK1 to beta-actin level at 10 uM after 48 hrs by Western blot analysis (reference value: 0.33); assay type: functional
Bel7402/5-FU [28] = assay: Induction of apoptosis in human Bel7402/5-FU cells assessed as late apoptotic cells at 10 uM after 48 hrs by Annexin V-APC/7-AAD staining based flow cytometry (reference value: 3%); assay type: functional
Bel7402/5-FU [29] = assay: Induction of apoptosis in human Bel7402/5-FU cells assessed as necrotic cells at 10 uM after 48 hrs by Annexin V-APC/7-AAD staining based flow cytometry (reference value: 0.58%); assay type: functional
Bel7402/5-FU [30] = assay: Induction of microtubule disruption in human Bel7402/5-FU cells at 10 uM after 24 to 48 hrs by DAPI staining based immunofluorescence microscopic method; assay type: functional, cell-based
Bel7402/5-FU [31] = assay: Effect on CDK2 expression in human Bel7402/5-FU cells assessed as ratio of CDK2 to beta-actin level at 10 uM after 48 hrs by Western blot analysis (reference value: 0.43); assay type: functional
Bel7402/5-FU [32] = assay: Cell cycle arrest in human Bel7402/5-FU cells assessed as accumulation at G1 phase at 10 uM after 48 hrs by propidium iodide staining based flow cytometry (reference value: 52.21%); assay type: functional
[33] = Resistant factor, ratio of IC50 for human Bel7402/5-FU cells to IC50 for human Bel7402 cells; assay type: functional
Bel7402/5-FU [34] = assay: Cell cycle arrest in human Bel7402/5-FU cells assessed as accumulation at G2 phase at 10 uM after 48 hrs by propidium iodide staining based flow cytometry (reference value: 35.16%); assay type: functional
Bel7402/5-FU [35] = assay: Induction of apoptosis in human Bel7402/5-FU cells at 10 uM after 24 hrs by Hoechst 33342 staining based fluorescent microscopic method; assay type: functional, cell-based

Sequence of RAC-alpha serine/threonine-protein kinase (Homo sapiens) (P31749 whole entry): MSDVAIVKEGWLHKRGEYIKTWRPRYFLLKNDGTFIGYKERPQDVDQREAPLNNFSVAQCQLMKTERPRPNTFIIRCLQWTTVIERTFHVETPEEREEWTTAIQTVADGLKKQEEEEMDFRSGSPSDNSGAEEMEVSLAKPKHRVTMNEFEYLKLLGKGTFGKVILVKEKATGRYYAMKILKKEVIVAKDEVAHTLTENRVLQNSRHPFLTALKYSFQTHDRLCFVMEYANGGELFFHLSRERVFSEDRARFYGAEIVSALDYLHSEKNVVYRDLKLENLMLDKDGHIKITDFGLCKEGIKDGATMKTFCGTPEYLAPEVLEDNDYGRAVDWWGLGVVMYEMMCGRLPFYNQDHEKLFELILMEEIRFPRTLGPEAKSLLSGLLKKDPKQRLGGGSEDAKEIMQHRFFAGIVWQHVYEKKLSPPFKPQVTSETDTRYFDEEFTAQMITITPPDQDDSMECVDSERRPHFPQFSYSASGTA
Sequence of Signal transducer and activator of transcription 3 (Homo sapiens) (P40763 whole entry): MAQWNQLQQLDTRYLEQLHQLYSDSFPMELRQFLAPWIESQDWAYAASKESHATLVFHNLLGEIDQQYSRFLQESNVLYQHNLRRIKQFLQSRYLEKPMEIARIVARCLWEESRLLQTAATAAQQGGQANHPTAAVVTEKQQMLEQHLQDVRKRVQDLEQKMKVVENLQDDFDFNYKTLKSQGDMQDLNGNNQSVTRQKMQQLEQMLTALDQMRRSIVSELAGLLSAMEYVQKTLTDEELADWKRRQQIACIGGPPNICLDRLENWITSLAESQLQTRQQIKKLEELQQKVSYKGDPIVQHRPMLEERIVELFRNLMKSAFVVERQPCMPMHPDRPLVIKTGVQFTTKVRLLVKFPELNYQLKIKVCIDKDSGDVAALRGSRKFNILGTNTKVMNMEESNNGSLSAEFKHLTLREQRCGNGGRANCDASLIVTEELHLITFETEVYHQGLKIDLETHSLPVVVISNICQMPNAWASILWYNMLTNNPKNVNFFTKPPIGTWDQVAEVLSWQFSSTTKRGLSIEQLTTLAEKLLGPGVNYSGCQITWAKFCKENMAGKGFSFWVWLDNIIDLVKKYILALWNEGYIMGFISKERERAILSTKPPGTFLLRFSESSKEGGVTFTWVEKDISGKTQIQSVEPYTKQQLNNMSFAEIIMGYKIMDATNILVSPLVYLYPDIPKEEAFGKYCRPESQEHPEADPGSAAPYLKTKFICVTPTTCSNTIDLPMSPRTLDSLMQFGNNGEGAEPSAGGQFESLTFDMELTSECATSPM
Sequence of Mitogen-activated protein kinase; ERK1/ERK2 (Homo sapiens) (P27361 whole entry, looked up): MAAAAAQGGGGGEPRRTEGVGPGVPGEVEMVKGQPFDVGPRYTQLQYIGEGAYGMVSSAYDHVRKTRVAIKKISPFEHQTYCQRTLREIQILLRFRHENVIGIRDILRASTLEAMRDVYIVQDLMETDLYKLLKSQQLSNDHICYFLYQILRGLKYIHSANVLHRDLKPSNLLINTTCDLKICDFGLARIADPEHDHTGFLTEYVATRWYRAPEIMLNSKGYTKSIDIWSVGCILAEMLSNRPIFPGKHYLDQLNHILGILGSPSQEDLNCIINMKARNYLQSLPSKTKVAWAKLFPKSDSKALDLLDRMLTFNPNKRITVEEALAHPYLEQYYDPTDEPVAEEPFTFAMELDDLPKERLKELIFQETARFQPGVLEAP
Sequence of Mitogen-activated protein kinase; ERK1/ERK2 (Homo sapiens) (P28482 whole entry, looked up): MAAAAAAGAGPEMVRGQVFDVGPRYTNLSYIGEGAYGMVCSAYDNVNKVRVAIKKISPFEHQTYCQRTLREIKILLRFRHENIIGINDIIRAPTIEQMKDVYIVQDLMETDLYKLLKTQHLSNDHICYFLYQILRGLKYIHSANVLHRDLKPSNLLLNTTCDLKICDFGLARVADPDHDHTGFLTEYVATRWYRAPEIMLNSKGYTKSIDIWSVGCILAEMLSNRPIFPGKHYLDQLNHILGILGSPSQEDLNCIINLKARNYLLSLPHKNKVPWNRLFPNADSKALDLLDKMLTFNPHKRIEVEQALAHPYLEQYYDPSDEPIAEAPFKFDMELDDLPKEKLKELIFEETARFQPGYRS

In the case of `COc1cc([C@@H]2c3cc4c(cc3[C@H](OC(=O)C(C)c3ccc(CC(C)C)cc3)[C@H]3COC(=O)[C@H]23)OCO4)cc(OC)c1OC` (some centres not stated), the Activity (Bel7402/5-FU [1]) is reported as 7.12%, the Ratio (Bel7402/5-FU [2]) is reported as 0.7 and the Activity (Bel7402/5-FU [3]) is reported as “Active”. For the same compound, the IC50 (Bel7402/5-FU [4]) was 10.3 µM, the Ratio [5] was 0.42 and the Ratio (Bel7402/5-FU [6]) was 0.46. The Ratio (Bel7402/5-FU [7]) was 0.52, the Ratio (Bel7402/5-FU [8]) was 0.18 and the Ratio (Bel7402/5-FU [9]) was 0.43. For the same compound, the Activity (Bel7402/5-FU [10]) was 27.34%, the Ratio (Bel7402/5-FU [11]) was 0.29 and the Activity (Bel7402/5-FU [12]) was “Active”. The Activity (Bel7402/5-FU [13]) was “Active”, the Activity (Bel7402/5-FU [14]) was “Active” and the Activity (Bel7402/5-FU [15]) was “Active”. The Activity (Bel7402/5-FU [16]) was 62.05%, the Ratio (Bel7402/5-FU [17]) was 0.25 and the Ratio (Bel7402/5-FU [18]) was 0.33. The Ratio (Bel7402/5-FU [19]) was 0.36, the Ratio [20] was 0.55 and the IC50 (L02) was 7.38 µM. The Ratio (Bel7402/5-FU [21]) was 0.35, the IC50 (Bel-7402) was 18.9 µM and the Ratio (Bel7402/5-FU [22]) was 0.25. The Ratio (Bel7402/5-FU [23]) was 0.61, the Ratio (Bel7402/5-FU [24]) was 0.21 and the Ratio (Bel7402/5-FU [25]) was 0.23. It also gave a Ratio [26] of 0.4, a Ratio (Bel7402/5-FU [27]) of 0.29 and an Activity (Bel7402/5-FU [28]) of 21.24%. For the same compound, the Activity (Bel7402/5-FU [29]) was 9.59%, the Activity (Bel7402/5-FU [30]) was “Active” and the Ratio (Bel7402/5-FU [31]) was 0.38. The Activity (Bel7402/5-FU [32]) was 8.88%, the “Ratio IC50” value [33] was 0.54 and the Activity (Bel7402/5-FU [34]) was 63.78%. The Activity (Bel7402/5-FU [35]) was “Active”.
